From US7868012B2, “Sulfamides as endothelin receptor antagonists for the treatment of cardiovascular diseases” (Actelion Pharmaceuticals, Ltd., priority 2004, dated 2011) come the findings set out here.

Assay [1] deals with T1, human recombinant ETA receptors (Homo sapiens, UniProt P25101).
T1 construct: expressed in transfected cells; host or cells: CHO cells (microsomal membranes)
T1 sequence (P25101 21-427): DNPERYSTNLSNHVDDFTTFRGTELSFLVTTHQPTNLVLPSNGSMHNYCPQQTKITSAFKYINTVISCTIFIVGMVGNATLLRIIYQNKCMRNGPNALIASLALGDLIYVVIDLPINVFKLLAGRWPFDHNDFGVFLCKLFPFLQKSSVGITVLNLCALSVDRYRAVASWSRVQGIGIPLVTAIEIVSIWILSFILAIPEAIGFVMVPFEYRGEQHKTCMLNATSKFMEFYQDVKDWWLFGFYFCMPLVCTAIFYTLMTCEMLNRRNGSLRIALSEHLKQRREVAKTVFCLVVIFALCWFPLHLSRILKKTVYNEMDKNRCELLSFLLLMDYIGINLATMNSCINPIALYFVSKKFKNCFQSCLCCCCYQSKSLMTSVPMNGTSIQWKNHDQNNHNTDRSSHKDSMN
Briefly: Inhibition of [125I]ET-1 binding to membranes from CHO cells carrying human ETA receptors.

For assay [2], the target named is T2, ETB receptors (rat tracheal rings) (Rattus norvegicus, UniProt P21451).
T2 construct: The thoracic aorta or trachea were excised, dissected and cut in 3-5 mm rings; from tissue; host or cells: tracheal rings of adult Wistar rats, epithelium removed
T2 sequence (P21451 27-442): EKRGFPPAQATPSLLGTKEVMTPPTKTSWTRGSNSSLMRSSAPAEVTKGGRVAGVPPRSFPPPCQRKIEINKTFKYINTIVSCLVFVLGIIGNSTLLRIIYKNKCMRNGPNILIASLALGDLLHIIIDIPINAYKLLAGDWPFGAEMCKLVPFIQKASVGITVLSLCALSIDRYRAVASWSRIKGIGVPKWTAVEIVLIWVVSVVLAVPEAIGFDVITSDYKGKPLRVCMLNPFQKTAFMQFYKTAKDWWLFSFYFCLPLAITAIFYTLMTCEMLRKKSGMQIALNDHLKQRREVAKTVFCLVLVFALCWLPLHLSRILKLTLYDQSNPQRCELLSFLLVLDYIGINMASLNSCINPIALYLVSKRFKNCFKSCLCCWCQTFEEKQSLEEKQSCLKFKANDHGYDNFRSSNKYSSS
Put plainly: Inhibition of sarafotoxin S6c-induced contraction of isolated rat tracheal rings. To be noted: contraction induced by sarafotoxin S6c, 10 min incubation, read-out: pA2 value Trachea (converted). It counts as cell-based. How it is done: (§1) 2) Inhibition of Endothelin-Induced Contractions on Isolated Rat Aortic Rings (ETA Receptors) and Rat Tracheal Rings (ETB Receptors):
(§2) The functional inhibitory potency of the endothelin antagonists was assessed by their inhibition of the contraction induced by endothelin-1 on rat aortic rings (ETA receptors) and of the contraction induced by sarafotoxin S6c on rat tracheal rings (ETB receptors). Adult Wistar rats were anesthetized and exsanguinated. The thoracic aorta or trachea were excised, dissected and cut in 3-5 mm rings. The endothelium/epithelium was removed by gentle rubbing of the intimal surface. Each ring was suspended in a 10 mL isolated organ bath filled with Krebs-Henseleit solution (in mM; NaCl 115, KCl 4.7, MgSO4 1.2, KH2PO4 1.5, NaHCO3 25, CaCl2 2.5, glucose 10) kept at 37° C. and gassed with 95% O2 and 5% CO2. The rings were connected to force transducers and isometric tension was recorded (EMKA Technologies SA, Paris, France). The rings were stretched to a resting tension of 3 g (aorta) or 2 g (trachea). […] The functional inhibitory potency of the test compound was assessed by calculating the concentration ratio, i.e. the shift to the right of the EC50 induced by different concentrations of test compound. […]

For assay [3], the target named is T3, human recombinant ETB receptors (Homo sapiens, UniProt P24530).
T3 construct: expressed in transfected cells; host or cells: CHO cells (microsomal membranes)
T3 sequence (P24530 27-442): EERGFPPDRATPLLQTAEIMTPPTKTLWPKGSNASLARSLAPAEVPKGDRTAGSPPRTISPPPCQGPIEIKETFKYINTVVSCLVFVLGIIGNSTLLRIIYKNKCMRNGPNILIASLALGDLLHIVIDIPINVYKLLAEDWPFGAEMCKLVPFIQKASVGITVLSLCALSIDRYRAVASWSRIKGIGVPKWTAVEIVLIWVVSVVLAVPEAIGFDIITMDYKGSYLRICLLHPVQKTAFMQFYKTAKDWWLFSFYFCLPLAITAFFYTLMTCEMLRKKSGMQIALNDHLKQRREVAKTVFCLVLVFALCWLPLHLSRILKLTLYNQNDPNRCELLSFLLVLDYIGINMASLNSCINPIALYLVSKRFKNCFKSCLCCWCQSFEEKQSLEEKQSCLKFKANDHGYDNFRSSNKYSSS
Put plainly: Inhibition of [125I]ET-1 binding to membranes from CHO cells carrying human ETB receptors. Also: 2.5% DMSO. The protocol:
1) Inhibition of Endothelin Binding to Membranes from CHO Cells Carrying Human ET Receptors:
For competition binding studies, membranes of CHO cells expressing human recombinant ETA or ETB receptors were used. Microsomal membranes from recombinant CHO cells were prepared and the binding assay made as previously described (Breu V., et al, FEBS Lett 1993; 334:210).
The assay is performed in 200 uL 50 mM Tris/HCl buffer, pH 7.4, including 25 mM MnCl2, 1 mM EDTA and 0.5% (w/v) BSA in polypropylene microtiter plates. […]. […] After 2 h, the membranes were filtered on filterplates containing GF/C filters (Unifilterplates from Canberra Packard S. A. Zürich, Switzerland). To each well, 50 uL of scintillation cocktail is added (MicroScint 20, Canberra Packard S. A. Zürich, Switzerland) and the filter plates counted in a microplate counter (TopCount, Canberra Packard S. A. Zürich, Switzerland).
All the test compounds were dissolved, diluted and added in DMSO. […] […].

Assay [4] addresses T4, ETA receptors (rat aortic rings) (Rattus norvegicus, UniProt P26684).
T4 construct: The thoracic aorta or trachea were excised, dissected and cut in 3-5 mm rings; from tissue; host or cells: thoracic aorta rings of adult Wistar rats, endothelium removed
T4 sequence (P26684 21-426): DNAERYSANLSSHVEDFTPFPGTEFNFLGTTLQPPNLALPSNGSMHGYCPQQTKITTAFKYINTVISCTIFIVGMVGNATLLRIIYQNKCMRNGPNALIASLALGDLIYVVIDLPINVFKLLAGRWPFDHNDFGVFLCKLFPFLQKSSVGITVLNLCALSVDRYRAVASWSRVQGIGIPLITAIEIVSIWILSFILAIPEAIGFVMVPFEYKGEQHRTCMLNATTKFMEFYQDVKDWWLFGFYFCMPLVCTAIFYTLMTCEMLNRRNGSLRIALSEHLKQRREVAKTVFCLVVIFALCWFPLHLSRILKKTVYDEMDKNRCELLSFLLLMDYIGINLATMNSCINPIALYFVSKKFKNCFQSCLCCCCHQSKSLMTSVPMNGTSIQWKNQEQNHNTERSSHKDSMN
Briefly: Inhibition of endothelin-1-induced contraction of isolated rat aortic rings. The conditions noted are these: read-out: pA2 value Aorta (converted). It counts as cell-based. How it is done:
as §1, §2

By IC50 is commonly meant the concentration that gives 50% inhibition. `O=S(=O)(NCCCO)Nc1ncnc(OCCOc2ncc(Br)cn2)c1-c1ccc(Br)cc1` [Example 1, 1-hydroxypropanesulfamic acid[6-(2-(5-bromopyrimid-2-yloxy)-ethoxy)-5-(4-bromophenyl)-pyrimidin-4-yl]-amide]: the half-inhibitory concentration (IC50) in assay [1] is 0.603 nM; in assay [3], 322 nM. Further, the Kb in assay [2] is 3160 nM; in assay [4] it was 100 nM.

On to `O=C(O)CCNS(=O)(=O)Nc1ncnc(OCCOc2ncc(Br)cn2)c1-c1ccc(Br)cc1` [Example 2], for which the concentration for half-maximal inhibition (IC50) in assay [1] came to 0.656 nM; in assay [3] it was 330 nM. The figures for the Kb in assay [2] and in assay [4] were 794 nM and 6.31 nM, respectively.
